Data: patent publication US9925192B2, “Method for treating cancer” (Merck Sharp & Dohme Corp., priority 2014, dated 2018)

Key:
H82 SCLC cells = test: In vitro cell viability (Cell Titer Glo), 8 hours of compound treatment; type: cell-based; settings: Homo sapiens, read-out: % Viability Remaining (8 hr), mean
Method: (§1) All cell lines were grown in exponential growth phase.

Su-DHL-4 DLBCL cells = test: as above; type: cell-based; settings: Homo sapiens, read-out: % Viability Remaining (8 hr), mean
Method: as §1

H128 SCLC cells = test: as above; type: cell-based; settings: Homo sapiens, read-out: % Viability Remaining (8 hr), mean
Method: as §1

H146 SCLC cells = test: as above; type: cell-based; settings: Homo sapiens, read-out: % Viability Remaining (8 hr), mean
Method: as §1

Su-DHL-8 DLBCL cells = test: as above; type: cell-based; settings: Homo sapiens, read-out: % Viability Remaining (8 hr), mean
Method: as §1

[1] = system: TOLEDO human Diffuse Large B-Cell Lymphoma (DLBCL) xenograft; test: Toledo human DLBCL xenograft model; settings: dinaciclib 40 mg/kg ip q4d, ABT-199 100 mg/kg po qd, alone or combined
Method: Eight week old female SCID beige mice (Fox Chase SCID® Beige) with body weights ranging from 18.0 to 22 grams were used for this study. Toledo tumor cells were grown to mid-log phase in RPMI-1640 medium containing 10% fetal bovine serum, 100 units/mL penicillin G, 100 μg/mL streptomycin sulfate, and 10 mM sodium pyruvate. The cells were cultured in tissue culture flasks in a humidified incubator at 37° C., in an atmosphere of 5% CO2 and 95% air. Mice were implanted subcutaneously in the right flank with 5×10e^6 tumor cells in 50% matrigel in a total volume of 0.1 ml. Twenty-eight days after inoculation, mice were randomized into groups when tumors reached an average tumor volume of ˜160 mm^3.
Dinaciclib, formulated in 20% hydroxypropyl beta-cyclodextrin (HPBCD), was dosed at 40 mg/kg intraperitoneal (ip) every four days (q4d). […] Both test agents were administered at 10 ml/kg.
Tumor volume (TV) was measured twice a week using calipers. Tumor volume was calculated by the elliptical formula: Tumor Volume=width2×length/2. Body weight was measured at least twice weekly. […] Statistical Analysis of Tumor Growth Inhibition (TGI) was analyzed by one-way ANOVA followed by Tukey's multiple comparison test.

[2] = system: SUDHL4 human Diffuse Large B-Cell Lymphoma (DLBCL) xenograft; type: in vivo; settings: dinaciclib 40 mg/kg ip q4d, ABT-199 100 mg/kg po qd, dosing for eleven days, combination measured on day 18
Method: (§2) The cells were cultured in tissue culture flasks in a humidified incubator at 37° C., in an atmosphere of 5% CO2 and 95% air.
(§3) Body weight was measured at least twice weekly.

[3] = system: NCI-H82 human Small Cell Lung Cancer (SCLC) xenograft; test: NCI-H82 human Small Cell Lung Cancer xenograft model; type: in vivo, mouse; settings: dinaciclib 40 mg/kg ip q4d, ABT-199 100 mg/kg po qd
Method: as §2, §3

| SMILES | viability at 1 µM (H82 SCLC cells; 8 h) [%] | viability at 1 µM (Su-DHL-4 DLBCL cells; SU-DHL-4, 8 h) [%] | viability at 1 µM (H128 SCLC cells; NCI-H128, 8 h) [%] | viability at 1 µM (H146 SCLC cells; NCI-H146, 8 h) [%] | viability at 1 µM (Su-DHL-8 DLBCL cells; SU-DHL-8, 8 h) [%] | Anti-tumor effect (tumor volume) [1] | Anti-tumor effect (tumor volume) [2] | Effect on tumor growth (single agents) [3] | viability at 0.1 µM (H82 SCLC cells; H82 SCLC, dinaciclib 0.1 uM, 8 hr) [%] | viability at 0.1 µM (Su-DHL-4 DLBCL cells; Su-DHL-4 DLBCL, dinaciclib 0.1 uM, 8 hr) [%] | viability at 0.1 µM (H128 SCLC cells; NCI-H128, H128 SCLC, dinaciclib 0.1 uM, 8 hr) [%] | viability at 0.1 µM (H146 SCLC cells; NCI-H146, H146 SCLC, dinaciclib 0.1 uM, 8 hr) [%] | viability at 0.1 µM (Su-DHL-8 DLBCL cells; Su-DHL-8 DLBCL, dinaciclib 0.1 uM, 8 hr) [%] |
| --- | --- | --- | --- | --- | --- | --- | --- | --- | --- | --- | --- | --- | --- |
| CC1(C)CCC(CN2CCN(c3ccc(C(=O)NS(=O)(=O)c4ccc(NCC5CCOCC5)c([N+](=O)[O-])c4)c(Oc4cnc5[nH]ccc5c4)c3)CC2)=C(c2ccc(Cl)cc2)C1 [ABT-199, 4-(4-{[2-(4-chlorophenyl)-4,4-dimethylcyclohex-1-en-1-yl]methyl}piperazin-1-yl)-N-({3-nitro-4-[(tetrahydro-2H-pyran-4-ylmethyl)amino]phenyl}sulfonyl)-2-(1H-pyrrolo[2,3-b]pyridin-5-yloxy)benzamide] | 111 | 85.4 | 95.4 | 92.6 | 99.4 | provided anti-tumor effects | single agent activity | no effect on tumor growth | – | – | – | – | – |
| CCc1cnn2c(NCc3ccc[n+]([O-])c3)cc(N3CCCC[C@H]3CCO)nc12 [dinaciclib, (S)-(−)-2-(1-{3-ethyl-7-[(1-oxy-pyridin-3-ylmethyl)amino]pyrazolo[1,5-a]pyrimidin-5-yl}piperidin-2-yl)ethanol] | – | – | – | – | – | – | – | – | 64.7 | 53.5 | 114 | 118 | 126 |
